What was measured:
[1] = pharmacokinetics of 4-hydroxy tamoxifen gel in healthy premenopausal women (Example 3); assay type: in vivo, human; settings: for Plasma concentration of 4-hydroxy tamoxifen, Mean ± SD / T(1stC < LOQ), first timepoint at which the plasma concentration was below the limit of quantification, Mean ± SD / Plasma concentration of 4-hydroxy tamoxifen, Range / AUC0-24, Mean ± SD / Cav = AUC0-24/24, Mean ± SD / Cmax, Mean ± SD / t1/2, Range / tmax, Mean ± SD: gel 57 mg/100 g; for T(1stC < LOQ), first timepoint at which the plasma concentration was below the limit of quantification, Mean ± SD: after last administration; for AUC0-24, Mean ± SD / Cav = AUC0-24/24, Mean ± SD / Cmax, Mean ± SD / t1/2, Range / tmax, Mean ± SD: last administration, day 25 of second cycle
Experimental: At the end of a menstrual cycle, each patient received a single dose, after which serial blood samples were collected at 0, 0.5, 1, 1.5, 2, 3, 4, 6, 12, 18, 24, 36, 48, and 72 hours.

[2] = tolerance of 4-hydroxy tamoxifen gel in healthy premenopausal women (Example 3)
Experimental: Each participant applied the gel daily for the duration of two menstrual cycles.
On the first day of the following menstruation, treatment, which consisted of daily application of the gel over two menstrual cycles, began. Blood samples were collected 24 hours following the morning application of gel on days 7, 20 and 25 of the first and second cycles. On the last day of administration, day 25 of the second menstrual cycle, serial blood samples were collected prior to application and at 0.5, 1, 1.5, 2, 3, 4, 6, 12, 18, 24, 36, 48, and 72 hours after application of the gel.

[3] = tested on: rat liver; settings: in vivo; cited from earlier work
[4] = target: T1, estrone sulphatase (Homo sapiens, UniProt P08842); settings: mammary cancer cell lines; cited from earlier work
T1 construct: estrone sulphatase activity in mammary cancer cell lines; endogenous in cells
T1 sequence (P08842 22-583): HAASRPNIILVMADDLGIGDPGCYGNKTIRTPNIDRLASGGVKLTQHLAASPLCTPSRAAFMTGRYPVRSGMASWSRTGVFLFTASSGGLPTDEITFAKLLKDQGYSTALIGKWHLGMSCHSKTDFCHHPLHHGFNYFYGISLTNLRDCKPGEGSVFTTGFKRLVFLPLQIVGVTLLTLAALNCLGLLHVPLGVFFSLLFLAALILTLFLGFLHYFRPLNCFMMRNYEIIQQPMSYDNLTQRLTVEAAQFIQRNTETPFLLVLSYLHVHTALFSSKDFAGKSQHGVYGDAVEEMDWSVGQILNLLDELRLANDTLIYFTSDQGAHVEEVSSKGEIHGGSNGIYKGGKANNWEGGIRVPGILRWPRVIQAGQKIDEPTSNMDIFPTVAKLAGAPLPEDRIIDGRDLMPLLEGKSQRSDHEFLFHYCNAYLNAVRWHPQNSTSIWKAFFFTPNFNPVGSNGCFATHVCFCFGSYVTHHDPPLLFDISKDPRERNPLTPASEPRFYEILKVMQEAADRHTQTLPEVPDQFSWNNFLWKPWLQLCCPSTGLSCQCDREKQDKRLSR

[5] = tested on: estrogen receptors; settings: in vitro; cited from earlier work

Question: For `CCC(=C(c1ccc(O)cc1)c1ccc(OCCN(C)C)cc1)c1ccccc1` [4-hydroxy tamoxifen, 1-[4-(2-N-dimethylaminoethoxy)phenyl]-1-(4-hydroxyphenyl)-2-phenylbut-1-ene], which “Plasma concentration of 4-hydroxy tamoxifen, Mean ± SD” value ([1]; 1 mg/day, Second cycle Day 25, 0.5 hr after application) is on record?
Answer: 0.0259 ± 0.0187 ng/mL

Question: And the “Plasma concentration of 4-hydroxy tamoxifen, Mean ± SD” value ([1]; 1 mg/day, Second cycle Day 25, 1 hr after application)?
Answer: 0.0287 ± 0.0195 ng/mL

Question: And the “Plasma concentration of 4-hydroxy tamoxifen, Mean ± SD” value ([1]; 1 mg/day, Second cycle Day 25, 1.5 hr after application)?
Answer: 0.0256 ± 0.0178 ng/mL

Question: And the “Plasma concentration of 4-hydroxy tamoxifen, Mean ± SD” value ([1]; 1 mg/day, Second cycle Day 25, 2 hr after application)?
Answer: 0.0251 ± 0.018 ng/mL

Question: What about the “Plasma concentration of 4-hydroxy tamoxifen, Mean ± SD” value ([1]; 1 mg/day, Second cycle Day 25, 3 hr after application) of the same compound?
Answer: 0.0248 ± 0.0205 ng/mL

Question: What about the “Plasma concentration of 4-hydroxy tamoxifen, Mean ± SD” value ([1]; 1 mg/day, Second cycle Day 25, 4 hr after application) of the same compound?
Answer: 0.0268 ± 0.0233 ng/mL

Question: And the “Plasma concentration of 4-hydroxy tamoxifen, Mean ± SD” value ([1]; 1 mg/day, Second cycle Day 25, 6 hr after application)?
Answer: 0.025 ± 0.0182 ng/mL

Question: What about the “Plasma concentration of 4-hydroxy tamoxifen, Mean ± SD” value ([1]; 1 mg/day, Second cycle Day 25, 12 hr after application) of the same compound?
Answer: 0.0283 ± 0.0229 ng/mL

Question: What about the “Plasma concentration of 4-hydroxy tamoxifen, Mean ± SD” value ([1]; 1 mg/day, Second cycle Day 25, 18 hr after application) of the same compound?
Answer: 0.0234 ± 0.0174 ng/mL

Question: And the “Plasma concentration of 4-hydroxy tamoxifen, Mean ± SD” value ([1]; 1 mg/day, Second cycle Day 26, 24 hr after last application)?
Answer: 0.026 ± 0.0196 ng/mL

Question: What about the “Plasma concentration of 4-hydroxy tamoxifen, Mean ± SD” value ([1]; 1 mg/day, Second cycle Day 26, 36 hr after last application) of the same compound?
Answer: 0.0257 ± 0.0184 ng/mL

Question: And the “Plasma concentration of 4-hydroxy tamoxifen, Mean ± SD” value ([1]; 1 mg/day, Second cycle Day 27, 48 hr after last application)?
Answer: 0.022 ± 0.016 ng/mL

Question: What about the “Plasma concentration of 4-hydroxy tamoxifen, Mean ± SD” value ([1]; 1 mg/day, Second cycle Day 28, 72 hr after last application) of the same compound?
Answer: 0.0189 ± 0.0124 ng/mL

Question: And the “T(1stC < LOQ), first timepoint at which the plasma concentration was below the limit of quantification, Mean ± SD” value ([1]; 1 mg/day)?
Answer: 236 ± 72 h

Question: What about the “Plasma concentration of 4-hydroxy tamoxifen, Mean ± SD” value ([1]; 1 mg/day, after the second cycle, +5 days) of the same compound?
Answer: 0.0114 ± 0.0082 ng/mL

Question: And the “Plasma concentration of 4-hydroxy tamoxifen, Range” value (“Plasma concentration … Range” below) ([1]; 1 mg/day, after the second cycle, +8 days)?
Answer: (0-14.8) pg/mL

Question: And the “AUC0-24, Mean ± SD” value ([1]; 1 mg/day)?
Answer: 0.619 ± 0.466 ng·h/mL

Question: And the “Cav = AUC0-24/24, Mean ± SD” value ([1]; 1 mg/day)?
Answer: 0.0258 ± 0.0194 ng/mL

Question: What about the “Cmax, Mean ± SD” value ([1]; 1 mg/day) of the same compound?
Answer: 0.0351 ± 0.0224 ng/mL

Question: What about the “t1/2, Range” value ([1]; 1 mg/day) of the same compound?
Answer: (58-118) hr

Question: What about the “tmax, Mean ± SD” value ([1]; 1 mg/day) of the same compound?
Answer: 12.8 ± 14.9 h

Question: What about the “Plasma concentration … Range” value ([1]; 2 mg/day, First cycle Day 1, 0 hr) of the same compound?
Answer: (0-0) pg/mL

Question: What about the “Plasma concentration of 4-hydroxy tamoxifen, Mean ± SD” value ([1]; 2 mg/day, First cycle Day 7, 24 hr after application) of the same compound?
Answer: 0.0269 ± 0.0182 ng/mL

Question: And the “Plasma concentration of 4-hydroxy tamoxifen, Mean ± SD” value ([1]; 2 mg/day, First cycle Day 20, 24 hr after application)?
Answer: 0.044 ± 0.0292 ng/mL

Question: And the “Plasma concentration of 4-hydroxy tamoxifen, Mean ± SD” value ([1]; 2 mg/day, First cycle Day 25, 24 hr after application)?
Answer: 0.0454 ± 0.031 ng/mL

Question: What about the “Plasma concentration of 4-hydroxy tamoxifen, Mean ± SD” value ([1]; 2 mg/day, Second cycle Day 7, 24 hr after application) of the same compound?
Answer: 0.0422 ± 0.0248 ng/mL

Question: What about the “Plasma concentration of 4-hydroxy tamoxifen, Mean ± SD” value ([1]; 2 mg/day, Second cycle Day 20, 24 hr after application) of the same compound?
Answer: 0.0389 ± 0.0271 ng/mL

Question: And the “Plasma concentration of 4-hydroxy tamoxifen, Mean ± SD” value ([1]; 2 mg/day, Second cycle Day 25, 0 hr (24 hours after Day 24 application, prior to final application))?
Answer: 0.0432 ± 0.0277 ng/mL

Question: And the “Plasma concentration of 4-hydroxy tamoxifen, Mean ± SD” value ([1]; 2 mg/day, Second cycle Day 25, 0.5 hr after application)?
Answer: 0.0445 ± 0.0299 ng/mL

Question: And the “Plasma concentration of 4-hydroxy tamoxifen, Mean ± SD” value ([1]; 2 mg/day, Second cycle Day 25, 1 hr after application)?
Answer: 0.0405 ± 0.0251 ng/mL

Question: And the “Plasma concentration of 4-hydroxy tamoxifen, Mean ± SD” value ([1]; 2 mg/day, Second cycle Day 25, 1.5 hr after application)?
Answer: 0.0368 ± 0.0211 ng/mL

Question: What about the “Plasma concentration of 4-hydroxy tamoxifen, Mean ± SD” value ([1]; 2 mg/day, Second cycle Day 25, 2 hr after application) of the same compound?
Answer: 0.0368 ± 0.0216 ng/mL

Question: And the “Plasma concentration of 4-hydroxy tamoxifen, Mean ± SD” value ([1]; 2 mg/day, Second cycle Day 25, 3 hr after application)?
Answer: 0.0361 ± 0.0206 ng/mL

Question: And the “Plasma concentration of 4-hydroxy tamoxifen, Mean ± SD” value ([1]; 2 mg/day, Second cycle Day 25, 4 hr after application)?
Answer: 0.0381 ± 0.0212 ng/mL

Question: And the “Plasma concentration of 4-hydroxy tamoxifen, Mean ± SD” value ([1]; 2 mg/day, Second cycle Day 25, 6 hr after application)?
Answer: 0.041 ± 0.0291 ng/mL

Question: And the “Plasma concentration of 4-hydroxy tamoxifen, Mean ± SD” value ([1]; 2 mg/day, Second cycle Day 25, 12 hr after application)?
Answer: 0.0451 ± 0.0306 ng/mL

Question: And the “Plasma concentration of 4-hydroxy tamoxifen, Mean ± SD” value ([1]; 2 mg/day, Second cycle Day 25, 18 hr after application)?
Answer: 0.0398 ± 0.0255 ng/mL

Question: What about the “Plasma concentration of 4-hydroxy tamoxifen, Mean ± SD” value ([1]; 2 mg/day, Second cycle Day 26, 24 hr after last application) of the same compound?
Answer: 0.044 ± 0.033 ng/mL

Question: What about the “Plasma concentration of 4-hydroxy tamoxifen, Mean ± SD” value ([1]; 2 mg/day, Second cycle Day 26, 36 hr after last application) of the same compound?
Answer: 0.0421 ± 0.0315 ng/mL

Question: And the “Plasma concentration of 4-hydroxy tamoxifen, Mean ± SD” value ([1]; 2 mg/day, Second cycle Day 27, 48 hr after last application)?
Answer: 0.0381 ± 0.0253 ng/mL

Question: What about the “Plasma concentration of 4-hydroxy tamoxifen, Mean ± SD” value ([1]; 2 mg/day, Second cycle Day 28, 72 hr after last application) of the same compound?
Answer: 0.0332 ± 0.0222 ng/mL

Question: What about the “T(1stC < LOQ), first timepoint at which the plasma concentration was below the limit of quantification, Mean ± SD” value ([1]; 2 mg/day) of the same compound?
Answer: 326 ± 97 h

Question: And the “Plasma concentration of 4-hydroxy tamoxifen, Mean ± SD” value ([1]; 2 mg/day, after the second cycle, +5 days)?
Answer: 0.0204 ± 0.0173 ng/mL

Question: And the “Plasma concentration of 4-hydroxy tamoxifen, Mean ± SD” value ([1]; 2 mg/day, after the second cycle, +8 days)?
Answer: 0.0108 ± 0.0134 ng/mL

Question: And the “Plasma concentration … Range” value ([1]; 2 mg/day, after the second cycle, +12 days)?
Answer: (0-30.4) pg/mL

Question: What about the “AUC0-24, Mean ± SD” value ([1]; 2 mg/day) of the same compound?
Answer: 0.998 ± 0.653 ng·h/mL

Question: And the “Cav = AUC0-24/24, Mean ± SD” value ([1]; 2 mg/day)?
Answer: 0.0416 ± 0.0272 ng/mL

Question: What about the “Cmax, Mean ± SD” value ([1]; 2 mg/day) of the same compound?
Answer: 0.0516 ± 0.0317 ng/mL

Question: What about the “t1/2, Range” value ([1]; 2 mg/day) of the same compound?
Answer: (49-101) hr

Question: What about the “tmax, Mean ± SD” value ([1]; 2 mg/day) of the same compound?
Answer: 11.8 ± 12.3 h

Question: What about the “plasma concentrations after the last gel application” value ([1]; 72 hours after the last gel application) of the same compound?
Answer: remained detectable

Question: What about the “plasma concentrations of 4-hydroxy tamoxifen after a single dose” value ([1]; single 0.5 mg dose) of the same compound?
Answer: did not produce detectable plasma concentrations

Question: What about the “patients with detectable plasma concentrations (>5 pg/mL)” value ([1]; single dose of 1 mg) of the same compound?
Answer: 6 of 12

Question: And the “plasma concentrations of 4-hydroxy tamoxifen compared with typical estradiol concentrations” value ([1]; topical application, 0.5-2 mg/day)?
Answer: < 0.08 ng/mL

Question: And the “patients who developed an allergic reaction to the gel” value ([2]; 36 patients)?
Answer: One

Question: What about the “patients who reported facial acne” value ([2]; 36 patients, 5 had a past history of acne) of the same compound?
Answer: 10

Question: What about the biological tolerance ([2]; all 36 patients, daily gel over two menstrual cycles) of the same compound?
Answer: excellent

Question: And the “effect on FSH, LH, estradiol, or progesterone hormone levels” value ([2]; during the menstrual cycles)?
Answer: did not affect

Question: And the “echographic examination of the ovaries” value ([2]; end of treatment, all patients)?
Answer: normal in all patients

Question: What about the “laboratory or clinical evidence of systemic effects” value ([2]; topical application) of the same compound?
Answer: no detectable laboratory or clinical evidence of systemic effects

Question: What about the rat liver carcinogenicity [3] of the same compound?
Answer: not

Question: What about the “inhibitory effect on estrone sulphatase activity” value [4] of the same compound?
Answer: significant inhibitory effect

Question: And the “potency versus tamoxifen, as measured by binding affinity to estrogen receptors” value [5]?
Answer: more potency than tamoxifen

Source: patent US8048927B2 (Besins Healthcare Luxembourg, priority 2004, dated 2011)
